Data from patent US11801266B2, “Methods of using anti-MIR126 compounds” (CITY OF HOPE, priority 2019, dated 2023).

Legend:
CML LSCs = assay: In vivo treatment of CML mice (SCLtTA/BCR-ABL BM cells transplanted into congenic B6 mice); set-up: species or system mouse
Procedure: Next, we transplanted BM cells from SCLtTA/BCR-ABL mice (CD45.2) into congenic B6 mice (CD45.1). Following confirmation of CML development at 4 weeks after transplantation, mice were treated as above with scrRNA, inhibitor, scrRNA+NIL, or inhibitor+NIL for 3 weeks.

normal hematopoiesis = assay: Transplantation of BM cells from treated WT B6 mice into recipient mice; format: in vivo, mouse; settings: recipients of BM cells from donor mice treated with scrRNA or inhibitor, 16 weeks after transplantation
normal BM LT-HSCs = assay: Cell cycling in mouse normal BM LT-HSCs; format: cell-based; settings: 500 nM, 72 h
Procedure: (§1) After transduction performed as above, GFP+ cells selected at 48 h were exposed to NIL (2 μM and 5 μM, Novartis) for another 72 h, and analyzed using assays for cell growth, apoptosis, cell cycle, CFC and CFC replating. Human HSCs and mouse LT-HSCs were also treated with CpG-miR-126 inhibitor or CpG-scrRNA (500 nM), with or without NIL (5 μM), for 72 h and analyzed for cell growth, apoptosis, cell cycle and CFC. Human CML HSCs co-cultured with control or miR-126 KD HUVECs and mouse CML LT-HSCs co-cultured with control or miR-126 KD ECs for 96 h, with or without NIL (5 μM), were also analyzed for cell growth, apoptosis, cell cycle and CFC. Cell growth was measured by Lumino Glo (Promega). Apoptosis was measured by labeling cells with Annexin V-PE or FITC or APC and 4, 6-diamidino-2-phenylindole (DAPI) (all from BD-PharMingen, San Diego, Calif.) and analyzed by flow cytometry. Cell cycle was analyzed by Ki-67-Alexa Fluor 647 (B56, BD) and DAPI labeling based on the manufacturer's protocol. Cells were also exposed to EdU (C10640, Invitrogen) for 2 h and EdU staining was analyzed according to the manufacturer's protocol. Cell proliferation was also measured by CFSE staining (Molecular probes) based on the manufacturer's protocol. […]

normal HSCs = assay: Cell cycling (EdU and DAPI) in human normal HSCs; format: cell-based; settings: 500 nM, compared to CpG-scrRNA-treated controls
Procedure: as §1

WT B6 mice = assay: Hematologic toxicity in normal WT B6 mice
Procedure: We treated WT B6 mice with CpG-scrRNA (scrRNA) or CpG-miR-126 inhibitor (inhibitor, 5 mg/kg/day i.v.) for 3 weeks, after which we collected their BM cells and transplanted them into recipient mice (3×10^5 BM cells/mouse).
To determine the in vivo effect of the CpG-miR-126 inhibitor on normal hematopoiesis, normal mice were treated with scrRNA or inhibitor for 3 weeks, followed by assessment of WBC, RBC, PLT counts in PB and BM subpopulations in BM.

CML BM LT-HSCs = assay: Cell cycling in mouse CML BM LT-HSCs; format: cell-based; settings: 500 nM, 72 h
Procedure: as §1

miR-126 = assay: In vivo miR-126 down-regulation in sorted LT-HSCs and ECs; set-up: species or system mouse; settings: normal and CML mice, 5 mg/kg/day iv daily for 3 days; QPCR
Procedure: Next, we evaluated CpG-miR-126 inhibitor-Cy3 uptake in mouse LT-HSCs and ECs in vitro and in vivo. […]
To measure the miRNA and mRNA expression, total RNA was extracted using the miRNeasy Mini Kit (Qiagen, Valencia, Calif.). For miRNA expression, reverse transcription using MultiScribe™ Reverse Transcriptase and Q-PCR analysis using Taqman assays (Applied Biosystems) were performed according to the manufacturer's protocol. RNU44 and snoRNA234 was used as internal controls for human and mouse miRNA respectively. For mRNA expression, first-strand cDNA was synthesized using the SuperScript III First-Strand Kit and then QPCR was performed using TaqMan Gene Expression Assays (Thermo Fisher). BCR-ABL expression in human and mouse samples were measured with primer and probe sequences for BCR-ABL (B3A2 or B2A2), as previously described^46. Results are presented as log 2-transformed ratio according to the 2−ΔCt method (ΔCt=Ct of target−Ct of reference).

CML HSCs = assay: Cell cycling (EdU and DAPI) in human CML HSCs; format: cell-based; settings: 500 nM, compared to CpG-scrRNA-treated controls
Procedure: as §1

[1] = WT B6 mice, 5 mg/kg/day i.v. for 3 weeks, compared with scrRNA-treated control mice

**Q.** Which “miR-126 levels in total ECs, Sca-1+ECs and Sca-1-ECs from BM” value (CML LSCs; CML mice treated 3 weeks, compared with scrRNA-treated mice) does the source give for “5′ G*G*T GCA TCG ATG CAGG*G*G* G*G xxxxx mCmGmC mAmUmU mAmUmU mAmCmU mCmAmC mGmGmU mAmCmG mA-3′ (GGTGCATCGATGCAGGGGGGCGCAUUAUUACUCACGGUACGA; CpG ODN, C3 linkers, phosphorothioate, 2'OMe; (1)..(2) phosphorothioation; (2)..(3) phosphorothioation; (16)..(17) phosphorothioation; (17)..(18) phosphorothioation; (18)..(19) phosphorothioation; (19)..(20) phosphorothioation; (20)..(21) Five C3 carbon chain linkers, ((CH2)3)5; modified_base (21)..(21) cm; modified_base (22)..(22) gm; modified_base (23)..(23) cm; modified_base (24)..(24) 2′-O-Methyladenosine; modified_base (25)..(26) um; mod) [CpG-miR-126 inhibitor, anti-miR-126 oligodeoxynucleotide linked to a CpG ODN (TLR9 ligand) by 5 C3 linker units; phosphothioated, 2′OMe-modified]” here?
**A.** The value was “significantly lower miR-126 levels”.

**Q.** What about the mice that survived (CML LSCs; CML mice, 3 weeks of treatment, followed 60 days after treatment discontinuation) of the same substance?
**A.** The mice that survived was 50%.

**Q.** What about the “donor LT-HSC numbers in BM” value (normal hematopoiesis) of the same substance?
**A.** Its value is “no significant differences”.

**Q.** And the “donor cell engraftment in PB, BM or spleen” value (normal hematopoiesis)?
**A.** The value was “no significant differences”.

**Q.** What about the cell cycling (normal BM LT-HSCs) of the same substance?
**A.** The cell cycling was “increased cell cycling”.

**Q.** What about the cell cycling (normal HSCs) of the same substance?
**A.** Its cell cycling is “increased cell cycling”.

**Q.** And the “numbers of ECs in the BM” value (WT B6 mice; [1])?
**A.** Its value is “no significant differences”.

**Q.** And the “numbers of LT-HSCs in the BM” value (WT B6 mice; [1])?
**A.** Its value is “no significant differences”.

**Q.** What about the “numbers of WBCs in PB” value (WT B6 mice; [1]) of the same substance?
**A.** Its value is “no significant differences”.

**Q.** What about the “numbers of mononuclear cells in the BM” value (WT B6 mice; [1]) of the same substance?
**A.** The value was “no significant differences”.

**Q.** And the “numbers of platelets (PLT) in PB” value (WT B6 mice; [1])?
**A.** Its value is “no significant differences”.

**Q.** What about the “numbers of red blood cells (RBC) in PB” value (WT B6 mice; [1]) of the same substance?
**A.** The value was “increased”.

**Q.** What about the “pre-clinical toxicity for normal hematopoiesis” value (WT B6 mice; overall conclusion, WT B6 mice treated for 3 weeks) of the same substance?
**A.** The value was “lacks pre-clinical toxicity for normal hematopoiesis”.

**Q.** And the cell cycling (CML BM LT-HSCs)?
**A.** Its cell cycling is “increased cell cycling”.

**Q.** And the “miR-126 down-regulation in sorted LT-HSCs and ECs” value (miR-126)?
**A.** The value was “significant miR-126 down-regulation”.

**Q.** What about the cell cycling (CML HSCs) of the same substance?
**A.** Its cell cycling is “increased cell cycling”.
